System: 485176-168-R4-J1-PDC complex spheroid growth
Assay: Anticancer human tumor 485176-168-R4-J1-PDC patient-derived pancreatic adenocarcinoma cell line growth inhibition [RAS]
Settings: for viability, T/C: stronger effect = lower value
Method in brief: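 Multi-cell-type spheroids: tumor cells plus HUVEC endothelial cells and mesenchymal stem cells. RAS-pathway inhibitors were combined with targeted agents, each dosed in half-log steps down from clinical Cmax, or from 10 microM when Cmax was unknown.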
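Further: spheroids exposed to compounds for seven days before readout.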
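Wherever viability, T/C is given: luminescence viability expressed relative to DMSO vehicle wells set as 100%.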

Which IC50 (curve of first compound, second compound 0.0316 µM) does the source give for `CCC(CC)c1cc(NC2CCC(N)C2)n2nccc2n1` (configuration not stated) + C#Cc1c(F)ccc2cc(O)cc(-c3ncc4c(N5CC6CCC(C5)N6)nc(OCC56CCCN5CC(F)C6)nc4c3F)c12 here?
Its IC50 is 1.36 µM.

What about the IC50 (curve of first compound, second compound 0.1 µM) of the same compound?
The IC50 was 1.48 µM.

What about the IC50 (curve of first compound, second compound 0.316 µM) of the same compound?
Its IC50 is 1.61 µM.

And the IC50 (curve of first compound, second compound 1 µM)?
Its IC50 is 1.61 µM.

What about the IC50 (curve of first compound, second compound 3.16 µM) of the same compound?
Its IC50 is 1.5 µM.

And the IC50 (curve of first compound, second compound 10 µM)?
Its IC50 is 1.46 µM.

What about the viability, T/C (second compound 0.0316 µM, first compound 0.0316 µM) of the same compound?
The viability, T/C was 115%.

And the viability, T/C (second compound 0.0316 µM, first compound 0.1 µM)?
Its viability, T/C is 80.2%.

What about the viability, T/C (second compound 0.0316 µM, first compound 0.316 µM) of the same compound?
The viability, T/C was 102%.

What about the viability, T/C (second compound 0.0316 µM, first compound 1 µM) of the same compound?
Its viability, T/C is 67.5%.

What about the viability, T/C (second compound 0.0316 µM, first compound 3.16 µM) of the same compound?
The viability, T/C was 2.68%.

And the viability, T/C (second compound 0.0316 µM, first compound 10 µM)?
Its viability, T/C is 0.57%.

And the viability, T/C (second compound 0.1 µM, first compound 0.0316 µM)?
Its viability, T/C is 105%.

What about the viability, T/C (second compound 0.1 µM, first compound 0.1 µM) of the same compound?
Its viability, T/C is 106%.

What about the viability, T/C (second compound 0.1 µM, first compound 0.316 µM) of the same compound?
Its viability, T/C is 95.3%.

And the viability, T/C (second compound 0.1 µM, first compound 1 µM)?
Its viability, T/C is 74.5%.

And the viability, T/C (second compound 0.1 µM, first compound 3.16 µM)?
The viability, T/C was 3.04%.

What about the viability, T/C (second compound 0.1 µM, first compound 10 µM) of the same compound?
The viability, T/C was 0.56%.

And the viability, T/C (second compound 0.316 µM, first compound 0.0316 µM)?
The viability, T/C was 85.5%.

And the viability, T/C (second compound 0.316 µM, first compound 0.1 µM)?
Its viability, T/C is 103%.

What about the viability, T/C (second compound 0.316 µM, first compound 0.316 µM) of the same compound?
Its viability, T/C is 94.1%.

What about the viability, T/C (second compound 0.316 µM, first compound 1 µM) of the same compound?
Its viability, T/C is 83.5%.

And the viability, T/C (second compound 0.316 µM, first compound 3.16 µM)?
The viability, T/C was 2.75%.

What about the viability, T/C (second compound 0.316 µM, first compound 10 µM) of the same compound?
Its viability, T/C is 0.5%.

And the viability, T/C (second compound 1 µM, first compound 0.0316 µM)?
The viability, T/C was 113%.

What about the viability, T/C (second compound 1 µM, first compound 0.1 µM) of the same compound?
The viability, T/C was 89.7%.

What about the viability, T/C (second compound 1 µM, first compound 0.316 µM) of the same compound?
Its viability, T/C is 92%.

And the viability, T/C (second compound 1 µM, first compound 1 µM)?
The viability, T/C was 83.1%.

What about the viability, T/C (second compound 1 µM, first compound 3.16 µM) of the same compound?
The viability, T/C was 2.71%.

What about the viability, T/C (second compound 1 µM, first compound 10 µM) of the same compound?
Its viability, T/C is 0.44%.

And the viability, T/C (second compound 3.16 µM, first compound 0.0316 µM)?
The viability, T/C was 103%.

What about the viability, T/C (second compound 3.16 µM, first compound 0.1 µM) of the same compound?
Its viability, T/C is 90.3%.

And the viability, T/C (second compound 3.16 µM, first compound 0.316 µM)?
The viability, T/C was 97%.

What about the viability, T/C (second compound 3.16 µM, first compound 1 µM) of the same compound?
The viability, T/C was 75.2%.

And the viability, T/C (second compound 3.16 µM, first compound 3.16 µM)?
The viability, T/C was 3.48%.

And the viability, T/C (second compound 3.16 µM, first compound 10 µM)?
The viability, T/C was 0.51%.

And the viability, T/C (second compound 10 µM, first compound 0.0316 µM)?
Its viability, T/C is 93.3%.

What about the viability, T/C (second compound 10 µM, first compound 0.1 µM) of the same compound?
Its viability, T/C is 96.3%.

What about the viability, T/C (second compound 10 µM, first compound 0.316 µM) of the same compound?
The viability, T/C was 79%.

And the viability, T/C (second compound 10 µM, first compound 1 µM)?
Its viability, T/C is 73%.

And the viability, T/C (second compound 10 µM, first compound 3.16 µM)?
Its viability, T/C is 2.33%.

And the viability, T/C (second compound 10 µM, first compound 10 µM)?
The viability, T/C was 0.39%.

Which IC50 (curve of first compound, second compound 0.000949 µM) does the source give for `CC(C)n1nc(-c2ccc3oc(N)nc3c2)c2c(N)ncnc21` + CCn1c(-c2cccnc2C(C)OC)c2c3cc(ccc31)N1CCOC(CC(NC(=O)C(C(C)C)N(C)C(=O)C3(F)CCN(C(=O)C#CC(C)(C)N(C)C)CC3)C(=O)N3CCCC(N3)C(=O)OCC(C)(C)C2)C1 here?
The IC50 was 0.0222 µM.

And the IC50 (curve of first compound, second compound 0.003 µM)?
The IC50 was 0.0286 µM.

What about the IC50 (curve of first compound, second compound 0.00949 µM) of the same compound?
Its IC50 is 0.0213 µM.

And the IC50 (curve of first compound, second compound 0.03 µM)?
The IC50 was 0.0166 µM.

And the IC50 (curve of first compound, second compound 0.0949 µM)?
Its IC50 is 0.0174 µM.

And the IC50 (curve of first compound, second compound 0.3 µM)?
Its IC50 is 0.00754 µM.

And the viability, T/C (second compound 0.000949 µM, first compound 0.000316 µM)?
The viability, T/C was 104%.

What about the viability, T/C (second compound 0.000949 µM, first compound 0.001 µM) of the same compound?
The viability, T/C was 81.1%.

What about the viability, T/C (second compound 0.000949 µM, first compound 0.00316 µM) of the same compound?
Its viability, T/C is 93.7%.

What about the viability, T/C (second compound 0.000949 µM, first compound 0.01 µM) of the same compound?
The viability, T/C was 75.7%.

What about the viability, T/C (second compound 0.000949 µM, first compound 0.0316 µM) of the same compound?
Its viability, T/C is 38.5%.

What about the viability, T/C (second compound 0.000949 µM, first compound 0.1 µM) of the same compound?
Its viability, T/C is 17.7%.

What about the viability, T/C (second compound 0.003 µM, first compound 0.000316 µM) of the same compound?
The viability, T/C was 82.1%.

What about the viability, T/C (second compound 0.003 µM, first compound 0.001 µM) of the same compound?
The viability, T/C was 79.9%.

What about the viability, T/C (second compound 0.003 µM, first compound 0.00316 µM) of the same compound?
The viability, T/C was 85.5%.

What about the viability, T/C (second compound 0.003 µM, first compound 0.01 µM) of the same compound?
Its viability, T/C is 72.5%.

And the viability, T/C (second compound 0.003 µM, first compound 0.0316 µM)?
The viability, T/C was 48.1%.

What about the viability, T/C (second compound 0.003 µM, first compound 0.1 µM) of the same compound?
Its viability, T/C is 21.4%.

And the viability, T/C (second compound 0.00949 µM, first compound 0.000316 µM)?
The viability, T/C was 88.1%.

What about the viability, T/C (second compound 0.00949 µM, first compound 0.001 µM) of the same compound?
Its viability, T/C is 89.4%.

What about the viability, T/C (second compound 0.00949 µM, first compound 0.00316 µM) of the same compound?
The viability, T/C was 84.1%.

What about the viability, T/C (second compound 0.00949 µM, first compound 0.01 µM) of the same compound?
The viability, T/C was 61.8%.

And the viability, T/C (second compound 0.00949 µM, first compound 0.0316 µM)?
The viability, T/C was 43.9%.

And the viability, T/C (second compound 0.00949 µM, first compound 0.1 µM)?
Its viability, T/C is 16%.

And the viability, T/C (second compound 0.03 µM, first compound 0.000316 µM)?
Its viability, T/C is 85.5%.

And the viability, T/C (second compound 0.03 µM, first compound 0.001 µM)?
The viability, T/C was 84.5%.

What about the viability, T/C (second compound 0.03 µM, first compound 0.00316 µM) of the same compound?
Its viability, T/C is 85.7%.

And the viability, T/C (second compound 0.03 µM, first compound 0.01 µM)?
Its viability, T/C is 62.6%.

And the viability, T/C (second compound 0.03 µM, first compound 0.0316 µM)?
The viability, T/C was 33%.

What about the viability, T/C (second compound 0.03 µM, first compound 0.1 µM) of the same compound?
The viability, T/C was 18.6%.

What about the viability, T/C (second compound 0.0949 µM, first compound 0.000316 µM) of the same compound?
The viability, T/C was 90.5%.

What about the viability, T/C (second compound 0.0949 µM, first compound 0.001 µM) of the same compound?
Its viability, T/C is 86.9%.

What about the viability, T/C (second compound 0.0949 µM, first compound 0.00316 µM) of the same compound?
Its viability, T/C is 69%.

What about the viability, T/C (second compound 0.0949 µM, first compound 0.01 µM) of the same compound?
Its viability, T/C is 65%.

What about the viability, T/C (second compound 0.0949 µM, first compound 0.0316 µM) of the same compound?
Its viability, T/C is 36.9%.

And the viability, T/C (second compound 0.0949 µM, first compound 0.1 µM)?
Its viability, T/C is 19.9%.

What about the viability, T/C (second compound 0.3 µM, first compound 0.000316 µM) of the same compound?
The viability, T/C was 76.9%.

And the viability, T/C (second compound 0.3 µM, first compound 0.001 µM)?
The viability, T/C was 72.8%.

And the viability, T/C (second compound 0.3 µM, first compound 0.00316 µM)?
The viability, T/C was 59.3%.

And the viability, T/C (second compound 0.3 µM, first compound 0.01 µM)?
The viability, T/C was 44.1%.

And the viability, T/C (second compound 0.3 µM, first compound 0.0316 µM)?
Its viability, T/C is 34.1%.

What about the viability, T/C (second compound 0.3 µM, first compound 0.1 µM) of the same compound?
The viability, T/C was 14.2%.

Which results are given for `NC1c2ccccc2OC12CCN(c1cnc3c(N4CCCc5ncccc54)n[nH]c3n1)CC2` (configuration not stated)?
viability, T/C (compound 0.1 µM): 79.2% [middle of 4 runs]; viability, T/C (compound 0.316 µM): 86.1% [middle of 4 runs]; viability, T/C (compound 1 µM): 85.1% [middle of 4 runs]; viability, T/C (compound 3.16 µM): 84.5% [middle of 4 runs]; viability, T/C (compound 10 µM): 72.2% [middle of 4 runs]; IC50 (curve of compound): > 10 µM

For `CCC(CC)c1cc(NC2CCC(N)C2)n2nccc2n1` (configuration not stated), which viability, T/C (compound 0.0316 µM) is on record?
Its viability, T/C is 105% [middle of 4 runs].

And the viability, T/C (compound 0.1 µM)?
The viability, T/C was 93.7% [middle of 4 runs].

What about the viability, T/C (compound 0.316 µM) of the same compound?
The viability, T/C was 98.9% [middle of 4 runs].

What about the viability, T/C (compound 1 µM) of the same compound?
The viability, T/C was 80.6% [middle of 4 runs].

What about the viability, T/C (compound 3.16 µM) of the same compound?
Its viability, T/C is 3.56% [middle of 4 runs].

And the viability, T/C (compound 10 µM)?
Its viability, T/C is 0.72% [middle of 4 runs].

What about the IC50 (curve of compound) of the same compound?
The IC50 was 1.58 µM [middle of 4 runs].
